Measured values reported in patent publication US10251869B2, “Compositions and methods of inhibiting metallo-β-lactamases” (priority 2014, dated 2019).
Values after ≈ are worked out from the molar mass of the structure shown. Read-outs that look alike come from different tables or passages of the source.

Tests used:
[1] = test system: CC(=O)OCC1=C(C(=O)O)N2C(=O)[C@@H](NC(=O)Cc3cccs3)[C@H]2SC1; test: Steady-state kinetic parameters of substrate hydrolysis by VIM-2; assay type: biochemical, P. aeruginosa; details: other: VIM-2, pH 7.5, 25° C., average ± SD, triplicate
Excerpt: (§1) Steady-state reactions were followed using an Agilent (Santa Clara, Calif.) 8453 Diode Array spectrophotometer as previously described. […] For ceftazidime and cefepime, a 0.2-cm path length quartz cuvette was used. A nonlinear leastsquares fit of the data (Henri Michaelis-Menten equation) using Enzfitter (Biosoft Corporation, Ferguson, Mo.) was employed to obtain the steady-state kinetic parameters Vmax and KM according to equation 1.
(§2) In this equation the observed first-order rate constant k=kcat/KM*[E].

[2] = test system: C[C@@H](O)[C@H]1C(=O)N2C(C(=O)O)=C(SCCN=CN)C[C@H]12; test: as above; assay type: biochemical, P. aeruginosa; details: other: VIM-2, pH 7.5, 25° C., average ± SD, triplicate
Excerpt: as §1, §2

[3] = test system: O=C(Cc1cccs1)N[C@@H]1C(=O)N2C(C(=O)O)=C(/C=C/c3ccc([N+](=O)[O-])cc3[N+](=O)[O-])CS[C@H]12; test: as above; assay type: biochemical, P. aeruginosa; details: other: VIM-2, pH 7.5, 25° C., average ± SD, triplicate
Excerpt: as §1, §2

E. coli pBC SK(−) = test: MIC by agar dilution, E. coli DH10B host with empty phagemid; assay type: cell-based; details: Escherichia coli
Procedure: (§3) E. coli DH10B (Invitrogen, Carlsbad, Calif.) was used as a host strain for pBCSK (−) blaVIM-2, and to obtain a mutant library at position 228 by site-saturation mutagenesis, using the QuickChange XL Site-directed Mutagenesis Kit (Stratagene). Briefly, primers that capture all 19 variants at MBL position 228 were designed and PCR mutagenic reactions were conducted using pBCSK (−) blaVIM-2 as a template, and transformed into E. coli DH10B. Single colonies were selected for plasmid purification, and successful mutagenesis was verified by complete DNA sequencing.
(§4) The effect of Zn^2+ availability was also tested by agar dilution using MH supplemented with 250 μM ZnSO4 or 5 μM EDTA. Reported values are the mode of at least 3 biological replicates.

[4] = test system: E. coli DH10B pBCSK(−) producing VIM-2 (228R); test: MIC by agar dilution, E. coli DH10B producing VIM-2; assay type: cell-based; details: Escherichia coli, read-out: MIC
Excerpt: A forward primer containing the SacI restriction site and a reverse primer with the BamHI restriction site were used to amplify blaVIM-2 including the pET24a(+) ribosomal binding site, using plasmid pET-24a(+)-blaVIM-2 as template. The product was then subcloned into phagemid pBCSK (−) (Agilent (Santa Clara, Calif.)) using the above restriction sites, and thus placing the blaVIM-2 open reading frame under control of the lac promoter, to yield phagemid pBCSK (−) blaVIM-2.
as §3, §4

[5] = test system: E. coli DH10B pBCSK(−) producing VIM-24 (R228L); test: MIC by agar dilution, E. coli DH10B producing VIM-24; assay type: cell-based; details: Escherichia coli, read-out: MIC
Procedure: as §3, §4

[6] = test system: E. coli DH10B pBCSK(−) producing R228K variant; test: MIC by agar dilution, E. coli DH10B producing VIM-2 R228K; assay type: cell-based; details: Escherichia coli
Procedure: as §3, §4

[7] = test system: E. coli DH10B pBCSK(−) producing R228P variant; test: MIC by agar dilution, E. coli DH10B producing VIM-2 R228P; assay type: cell-based; details: Escherichia coli
Procedure: as §3, §4

[8] = test system: E. coli DH10B pBCSK(−) producing R228M variant; test: MIC by agar dilution, E. coli DH10B producing VIM-2 R228M; assay type: cell-based; details: Escherichia coli
Procedure: as §3, §4

[9] = test system: E. coli DH10B pBCSK(−) producing R228Q variant; test: MIC by agar dilution, E. coli DH10B producing VIM-2 R228Q; assay type: cell-based; details: Escherichia coli
Procedure: as §3, §4

[10] = test system: E. coli DH10B pBCSK(−) producing R228Y variant; test: MIC by agar dilution, E. coli DH10B producing VIM-2 R228Y; assay type: cell-based; details: Escherichia coli
Procedure: as §3, §4

[11] = test system: VIM-2 producing P. aeruginosa; test: Imipenem MIC of clinical isolate, VIM-2 P. aeruginosa; assay type: cell-based
[12] = test system: VIM-24 producing K. pneumoniae; test: Imipenem MIC of clinical isolate, VIM-24 K. pneumoniae; assay type: cell-based; details: Klebsiella pneumoniae
VIM-24 = target: T1, VIM-24 (Escherichia coli, UniProt Q5U7L7, R205L); test: Steady-state kinetic parameters of substrate hydrolysis by VIM-24; assay type: biochemical; details: pH 7.5, 25° C., average ± SD, triplicate
T1 construct: which corresponds to cleavage after residues 20 (plus an additional Met residue on the N-terminus); made in house; host or cells: E. coli BL21(DE3) pLys, plasmid pET-24a(+)-blaVIM-24-S21
Excerpt: as §1, §2

[13] = MHA supplemented with 5 μM EDTA
[14] = MHA supplemented with 250 μM Zn2+

With VIM-2 (Pseudomonas aeruginosa) the Km [1] was 17 ± 2 µM, the kcat [1] was 168 ± 8 s⁻¹ and the kcat/Km [1] was 9.8e+06 M⁻¹ s⁻¹. For the same molecule, the Km [2] was 12 ± 1 µM, the kcat [2] was 45 ± 1 s⁻¹ and the kcat/Km [2] was 3.6e+06 M⁻¹ s⁻¹. For the same molecule, the Km [3] was 13 ± 1 µM, the kcat [3] was 430 ± 20 s⁻¹ and the kcat/Km [3] was 3.3e+07 M⁻¹ s⁻¹.
`CO/N=C(\C(=O)N[C@@H]1C(=O)N2C(C(=O)O)=C(COC(C)=O)CS[C@H]12)c1csc(N)n1` [Cefotaxime] showed an MIC (E. coli pBC SK(−); MHA) of 0.06 µg/mL (≈ 0.132 µM), an MIC ([4]; MHA) of 8 µg/mL (≈ 17.6 µM) and an MIC ([5]; MHA) of 16 µg/mL (≈ 35.1 µM). For the same molecule, the MIC ([6]; MHA) was 1 µg/mL (≈ 2.2 µM), the MIC ([7]; MHA) was 1 µg/mL (≈ 2.2 µM) and the MIC ([8]; MHA) was 16 µg/mL (≈ 35.1 µM). The MIC ([9]; MHA) was 32 µg/mL (≈ 70.3 µM) and the MIC ([10]; MHA) was 16 µg/mL (≈ 35.1 µM).
`C[C@@H](O)[C@H]1C(=O)N2C(C(=O)O)=C(SCCN=CN)C[C@H]12` [Imipenem] gave an MIC (E. coli pBC SK(−); MHA) of 0.25 µg/mL (≈ 0.835 µM), an MIC (E. coli pBC SK(−); [13]) of at most 0.125 µg/mL and an MIC (E. coli pBC SK(−); [14]) of 0.25 µg/mL (≈ 0.835 µM). It also gave an MIC [4, 13] of 0.5 µg/mL (≈ 1.67 µM), an MIC [4, 14] of 1 µg/mL (≈ 3.34 µM) and an MIC ([4]; MHA) of 0.5 µg/mL (≈ 1.67 µM). It also gave an MIC [5, 13] of 0.5 µg/mL (≈ 1.67 µM), an MIC [5, 14] of 1 µg/mL (≈ 3.34 µM) and an MIC ([5]; MHA) of 0.5 µg/mL (≈ 1.67 µM). For the same molecule, the MIC ([6]; MHA) was 0.25 µg/mL (≈ 0.835 µM), the MIC [6, 13] was 0.25 µg/mL (≈ 0.835 µM) and the MIC [6, 14] was 0.25 µg/mL (≈ 0.835 µM). It also gave an MIC ([7]; MHA) of 0.5 µg/mL (≈ 1.67 µM), an MIC [7, 13] of at most 0.125 µg/mL and an MIC [7, 14] of 0.25 µg/mL (≈ 0.835 µM). The MIC ([8]; MHA) was 2 µg/mL (≈ 6.68 µM), the MIC [8, 13] was 1 µg/mL (≈ 3.34 µM) and the MIC [8, 14] was 4 µg/mL (≈ 13.4 µM). The MIC ([9]; MHA) was 4 µg/mL (≈ 13.4 µM), the MIC [9, 13] was 4 µg/mL (≈ 13.4 µM) and the MIC [9, 14] was over 4 µg/mL. For the same molecule, the MIC ([10]; MHA) was 1 µg/mL (≈ 3.34 µM), the MIC [10, 13] was 1 µg/mL (≈ 3.34 µM) and the MIC [10, 14] was 1 µg/mL (≈ 3.34 µM). It also gave an MIC ([11]; Pseudomonas aeruginosa) of 32 µg/mL, an MIC ([11]; VIM-2 harboring P. aeruginosa clinical isolate) of 32 µg/mL and an MIC ([12]; VIM-24 producing K. pneumoniae) of 2 µg/mL. The MIC ([12]; VIM-24 producing K. pneumoniae clinical isolate) was 1 µg/mL.
`CO/N=C(\C(=O)N[C@@H]1C(=O)N2C(C(=O)O)=C(CSc3nc(=O)c(=O)[nH]n3C)CS[C@H]12)c1csc(N)n1` [Ceftriaxone] showed an MIC (E. coli pBC SK(−); MHA) of 0.5 µg/mL (≈ 0.902 µM), an MIC ([4]; MHA) of 8 µg/mL (≈ 14.4 µM) and an MIC ([5]; MHA) of 8 µg/mL (≈ 14.4 µM). It also gave an MIC ([6]; MHA) of 1 µg/mL (≈ 1.8 µM), an MIC ([7]; MHA) of 0.5 µg/mL (≈ 0.902 µM) and an MIC ([8]; MHA) of 16 µg/mL (≈ 28.9 µM). It also gave an MIC ([9]; MHA) of 32 µg/mL (≈ 57.7 µM) and an MIC ([10]; MHA) of 16 µg/mL (≈ 28.9 µM).
Molecule `CC(=O)OCC1=C(C(=O)O)N2C(=O)[C@@H](NC(=O)Cc3cccs3)[C@H]2SC1` [Cephalothin] has an MIC (E. coli pBC SK(−); MHA) of 8 µg/mL (≈ 20.2 µM), an MIC ([6]; MHA) of 16 µg/mL (≈ 40.4 µM) and an MIC ([7]; MHA) of 16 µg/mL (≈ 40.4 µM). For the same molecule, the MIC ([9]; MHA) was 1020 µg/mL (≈ 2580 µM), the Kcat (VIM-24) was 150 ± 9 s⁻¹ and the Km (VIM-24) was 33 ± 5 µM.
